Reference: patent publication US20240239801A1, “PYRIMIDO[5,4,D]PYRIMIDINE COMPOUNDS, COMPOSITIONS COMPRISING THEM AND USES THEREOF” (Université de Montréal, priority 2021, published 2024)

Columns and labels:
SW480 pERK = assay: Phospho-ERK inhibition, AlphaLISA SureFire Ultra p-ERK 1/2; assay type: cell-based, human; conditions: Table 3; for IC50: 1 h treatment, read-out: SW480 PERK IC50; for SW480 (Ymin %): lowest value of the pERK IC50 curve
Experimental: (§1) All cancer cell lines (A375, A101D, A2058, RKO, HT29 SK-MEL 30, IPC298, HepG2, HCT-116, Lovo, SW620, SW480, NCI-H358, NCI-H2122, Calu-6, NCIH2087, NCIH1755, NCIH1666 and Mewo) were obtained from ATCC and cultured in RPMI-1640 medium (Gibco) supplemented with 5% heat inactivated fetal bovine serum (FBS, Wisent) at 37° C. under 5% CO2. Cells were maintained in T175 flasks (Greiner). They were passaged by removing the culture medium, washing once in 10 mL of room temperature Phosphate Buffered Saline (PBS; Wisent) and incubating at 37° C. with 2 mL of 0.05% Trypsin (Thermo-Fisher). Trypsin was then inactivated by adding complete growth medium and the cells were then replated in a T175 culture dish at the appropriate dilution. All cell lines were routinely tested for mycoplasma contamination. Tissue type and mutational status of each cell line can be found in Table B.
(§2) AlphaLISA® SureFire® Ultra™ p-ERK ½ (Thr202/Tyr204) analysis was conducted on cells plated in 100 μL of complete RPMI-1640 growth medium in 96-well flat-bottomed transparent dishes (Costar) at a density indicated in Table C. Cells were maintained overnight at 37° C. under 5% CO2 before treatment with compounds' dilution series for one hour. The cell density in cells/cm^2 corresponds to cell number divided by the area of one well of a 96-well plate ([…]).
(§3) In a dilution series 100 μL/well of test substance dilution prepared in complete RPMI-1640 growth media was added to the cells. The dilution series is selected so that ten concentrations cover a range from 30 μM or 10 μM to 0.33 nM. If necessary, the initial concentration of 10 μM is increased to 100 μM or lowered to 1 μM (as in the case of A375 and NCIH1666 cells, which are generally more sensitive to the compounds) and further dilution is carried out accordingly. The final concentration of DMSO in the assay is set at 0.5%.
(§4) After treatment, media was removed, and cells were lysed in 50 μL of 1× AlphaScreen Ultra Lysis Buffer (Perkin Elmer). The AlphaLISA® SureFire® Ultra™ p-ERK ½ (Thr202/Tyr2O4) (PerkinElmer) reactions were performed with 5 μL of cell lysate according to the manufacturer's specifications in 384-well proxyplates (Perkin Elmer) followed by overnight incubation of the reactions at room temperature in a humidified chamber. After completion of the reactions, the signals were recorded on an EnVision plate reader (Perkin Elmer) using built in AlphaLISA® settings.
(§5) The effect of each compound dilution on the pERK signal was expressed in % inhibition and calculated as follows. An internal 100% inhibition control (1 μM trametinib, cat. No. HY-10999; MedChem Express; CAS No. 871700-17-3) was included in each plate and used as a measure of pERK background. First, the value obtained for trametinib was subtracted from each data point. The average of DMSO (vehicle) controls (set as 0% inhibition) was established and used to calculate % inhibition:
(§6) The ability of each compound to inhibit pERK signal was expressed as an IC50 value obtained by plotting the inhibition values for each data point of a dilution series and fitting the obtained curves using a log(agonist) versus response−variable slope (four parameters) function using GraphPadPrism (V7.0).
(§7) When present, paradoxical pERK induction is inferred from the negative % inhibition values observed in the pERK IC50 curves of a compound.

HCT116 pERK = assay: as above; assay type: cell-based, human; conditions: Table 3; for IC50: 1 h treatment; for HCT116 (Ymin %): lowest value of the pERK IC50 curve
Experimental: as §1, §2, §3, §4, §5, §6, §7

SMILES | IC50 (SW480 pERK) [µM] | SW480 (Ymin %) (SW480 pERK) [%] | IC50 (HCT116 pERK) [µM] | HCT116 (Ymin %) (HCT116 pERK) [%]
Cc1ncn(-c2ncc3ncnc(Nc4c(F)ccc(NS(=O)(=O)c5ccc6c(c5)CCO6)c4F)c3n2)c1C [Example 65] | 1 to 10 | 5 | 1 to 10 | 4
O=S(=O)(Nc1ccc(F)c(Nc2ncnc3cnc(N4CC[C@H](F)C4)nc23)c1F)c1ccc2c(c1)CCO2 [Example 66] | 1 to 10 | 0 | 10 to 30 | 10
CO[C@@H]1CCN(S(=O)(=O)Nc2ccc(F)c(Nc3ncnc4cnc(N5Cc6ccccc6C5)nc34)c2F)C1 [Example 67] | 1 to 10 | 18 | 1 to 10 | 6
CO[C@@H]1CCN(S(=O)(=O)Nc2ccc(F)c(Nc3ncnc4cnc(-n5ccc6ccccc65)nc34)c2F)C1 [Example 68] | 1 to 10 | 0 | 1 to 10 | 17
COCC1CCN(S(=O)(=O)Nc2ccc(F)c(Nc3ncnc4cnc(-n5cnc6ccccc65)nc34)c2F)C1 (centres unmarked) [Example 70] | 1 to 10 | 1 | 1 to 10 | 0
CO[C@@H]1CCN(S(=O)(=O)Nc2ccc(F)c(Nc3ncnc4cnc(-n5ccc6cccnc65)nc34)c2F)C1 [Example 71] | 1 to 10 | −4 | 1 to 10 | 8
CO[C@@H]1CCN(S(=O)(=O)Nc2ccc(F)c(Nc3ncnc4cnc(-n5nnc6ccccc65)nc34)c2F)C1 [Example 72] | 1 to 10 | 1 | 1 to 10 | 20
CC1CCN(S(=O)(=O)Nc2ccc(F)c(Nc3ncnc4cnc(-n5cnc6ccccc65)nc34)c2F)C1 (centres unmarked) [Example 73] | 1 to 10 | 7 | 1 to 10 | −2
O=S(=O)(Nc1ccc(F)c(Nc2ncnc3cnc(-n4cnc5ccccc54)nc23)c1F)N1CC2CC2C1 (centres unmarked) [Example 74] | 1 to 10 | −7 | 1 to 10 | −3
O=S(=O)(Nc1ccc(F)c(Nc2ncnc3cnc(-n4cnc5ccccc54)nc23)c1F)N1CCC(CCl)C1 (centres unmarked) [Example 75] | 1 to 10 | −6 | 1 to 10 | −10
CCC1CCN(S(=O)(=O)Nc2ccc(F)c(Nc3ncnc4cnc(-n5cnc6ccccc65)nc34)c2F)C1 (centres unmarked) [Example 76] | 1 to 10 | −9 | 1 to 10 | −1
